In patent US20240148821A1, “PHARMACEUTICAL USE OF CYCLIC PEPTIDE COMPOUND” (CHUGAI SEIYAKU KABUSHIKI KAISHA, priority 2021, published 2024):
Numbered stars: 1 amine (or outer) side, 2 acyl side, 3 side chain; on linkers, the order of the positions; unused ones are H or OH. Bridge positions count the residues as written; N and C are the ends. Square brackets hold non-standard residues; d marks the D form. Peptide text beside a SMILES is read from it. * marks the point of attachment. hPhe(3-Cl-4-CF3) = N[C@@H](CCc1ccc(C(F)(F)F)c(Cl)c1)C(=O)O; NMePhe(4-CF3) = CN[C@@H](Cc1ccc(C(F)(F)F)cc1)C(=O)O; hPhe(4-CF3) = N[C@@H](CCc1ccc(C(F)(F)F)cc1)C(=O)O; NMePhe(4-Cl) = CN[C@@H](Cc1ccc(Cl)cc1)C(=O)O; NMePhe(4-Me) = CN[C@@H](Cc1ccc(C)cc1)C(=O)O; NMePhe(4-F) = CN[C@@H](Cc1ccc(F)cc1)C(=O)O; NMePhe(4-I) = CN[C@@H](Cc1ccc(I)cc1)C(=O)O; NMedβ3hAla = C[C@H](CC(=O)[*:2])N(C)[*:1]; X42 = CC(C)C[C@H](CC(=O)[*:2])N(C)[*:1]; NMeGly(cPent) = CN[C@H](C(=O)O)C1CCCC1; Phe(3-I) = N[C@@H](Cc1cccc(I)c1)C(=O)O; NMeY = CN[C@@H](Cc1ccc(O)cc1)C(=O)O; NMeCha = CN[C@@H](CC1CCCCC1)C(=O)O; X124 = O=C([C@H]1COCCN1[*:1])[*:2]; NEtLeu = CCN[C@@H](CC(C)C)C(=O)O; NMeChg = CN[C@H](C(=O)O)C1CCCCC1; NMeI = CC[C@H](C)[C@H](NC)C(=O)O; NMeE = CN[C@@H](CCC(=O)O)C(=O)O; NMeD = CN[C@@H](CC(=O)O)C(=O)O; NMeHpra = C#CCC[C@H](NC)C(=O)O; NMeL = CN[C@@H](CC(C)C)C(=O)O; NMeV = CN[C@H](C(=O)O)C(C)C; d(β3hA) = C[C@@H](N)CC(=O)O; NMeS = CN[C@@H](CO)C(=O)O; NMeA = CN[C@@H](C)C(=O)O; Nle = CCCC[C@H](N)C(=O)O; Piperidide = C1CCN(*)CC1; Pyrrolidide = C1CCN(*)C1; Ac5c = NC1(C(=O)O)CCCC1; Aze = O=C(O)[C@@H]1CCN1; Aib = CC(C)(N)C(=O)O; Sar = CNCC(=O)O; Propyl = CCC*

biological target: protein-protein interaction between Kras and SOS1 (biotin-tagged human Kras loaded with GDP, His-tagged human SOS1) (Homo sapiens (Human), UniProt P01116, G12D); experiment: Protein-protein interaction inhibition between Kras and SOS1 (KrasG12D-SOS PPI) using AlphaScreen; assay type: biochemical; conditions: AlphaScreen; biotin-tagged human Kras loaded with GDP, His-tagged human SOS1; read-out: KRAS G12D-SOS PPI IC50;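 also: kras produced in E. coli, Ni-coupled donor beads and streptavidin acceptor beads, excitation 680 nm with emission detected at 520–620 nm via singlet oxygen transfer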

SMILES | IC50
CC[C@H](C)[C@@H]1NC(=O)[C@H](CC(C)C)N(C)C(=O)C[C@@H](CC(C)C)N(C)C(=O)[C@H]([C@@H](C)CC)N(C)C(=O)C2(CCCC2)NC(=O)[C@@H]2CCCN2C(=O)[C@H](CCc2ccc(C(F)(F)F)c(Cl)c2)NC(=O)CN(C)C(=O)[C@H](Cc2ccc(C)cc2)N(C)C(=O)[C@@H]2CCN2C(=O)[C@H](C)N(C)C1=O [Compound 1974] (cyclo([Ac5c][NMeI][X42][NMeL]I[NMeA][Aze][NMePhe(4-Me)][Sar][hPhe(3-Cl-4-CF3)]P)) | 45 nM
CCCC[C@@H]1NC(=O)[C@H](Cc2cccc(I)c2)NC(=O)CN(C)C(=O)[C@H](Cc2ccc(OC)cc2)N(C)C(=O)[C@@H]2CCN2C(=O)[C@H](C)N(C)C(=O)[C@H]([C@@H](C)CC)NC(=O)[C@H](CC(C)C)N(C)C(=O)C[C@@H](C(=O)N2CCCCC2)N(C)C(=O)[C@H](CC(C)C)NC(=O)[C@H](CCC(=O)N(C)C)N(C)C1=O [Compound 2110, 3-[(3S,6S,9S,13S,16S,19S,22S,25S,31S,34S)-22-butyl-25-[(3-iodophenyl)methyl]-9,16-diisobutyl-31-[(4-methoxyphenyl)methyl]-3,4,10,14,20,29,32-heptamethyl-6-[(1S)-1-methylpropyl]-2,5,8,11,15,18,21,24,27,30,33-undecaoxo-13-(piperidine-1-carbonyl)-1,4,7,10,14,17,20,23,26,29,32-undecazabicyclo[32.2.0]hexatriacontan-19-yl]-N,N-dimethyl-propanamide] ([NMeL]I[NMeA][Aze][NMeY](Me)[Sar][Phe(3-I)][Nle][NMeE](NMe2)L[NMeD]-Piperidide; lactam N-11) | 9.8 nM
CC[C@H](C)[C@@H]1NC(=O)[C@H](CC(C)C)N(CC)C(=O)C[C@@H](C(=O)N2CCCC2)N(C)C(=O)[C@H]([C@@H](C)CC)N(C)C(=O)C2(CCCC2)NC(=O)[C@@H]2CCCN2C(=O)[C@H](CCc2ccc(C(F)(F)F)c(Cl)c2)NC(=O)CN(C)C(=O)[C@H](Cc2ccc(C(F)(F)F)cc2)N(C)C(=O)[C@@H]2CCN2C(=O)[C@H](C)NC1=O [Compound 1146] ([NEtLeu]IA[Aze][NMePhe(4-CF3)][Sar][hPhe(3-Cl-4-CF3)]P[Ac5c][NMeI][NMeD]-Pyrrolidide; lactam N-11) | 1.9 nM
C#CCC[C@H]1C(=O)N[C@@H]([C@@H](C)CC)C(=O)N(C)[C@@H](C)C(=O)N2CC[C@H]2C(=O)N(C)[C@@H](Cc2ccc(I)cc2)C(=O)N(C)CC(=O)N[C@@H](CCc2ccc(C(F)(F)F)c(Cl)c2)C(=O)N2CCC[C@H]2C(=O)NC2(CCCC2)C(=O)N(C)[C@@H](C2CCCCC2)C(=O)N[C@H](C)CC(=O)N1C [Compound 971] (cyclo([Ac5c][NMeChg][d(β3hA)][NMeHpra]I[NMeA][Aze][NMePhe(4-I)][Sar][hPhe(3-Cl-4-CF3)]P)) | 16 nM
CC[C@H](C)[C@@H]1NC(=O)[C@H](CC(C)C)N(CC)C(=O)C[C@@H](C(=O)N(C)C)N(C)C(=O)[C@H]([C@@H](C)CC)N(C)C(=O)C2(CCCC2)NC(=O)[C@@H]2CCCN2C(=O)[C@H](CCc2ccc(C(F)(F)F)c(Cl)c2)NC(=O)CN(C)C(=O)[C@H](Cc2ccc(C)cc2)N(C)C(=O)[C@@H]2CCN2C(=O)[C@H](C)NC1=O [Compound 1287] ([NEtLeu]IA[Aze][NMePhe(4-Me)][Sar][hPhe(3-Cl-4-CF3)]P[Ac5c][NMeI][NMeD]-NMe2; lactam N-11) | 1.1 nM
CC[C@H](C)[C@@H]1NC(=O)[C@H](C)N(C)C(=O)C[C@@H](C)N(C)C(=O)[C@H](CC(C)C)NC(=O)C(C)(C)NC(=O)[C@H](CC(C)C)NC(=O)[C@H](CCc2ccc(C(F)(F)F)cc2)NC(=O)CN(C)C(=O)[C@H](Cc2ccc(Cl)cc2)N(C)C(=O)CN(C)C(=O)CN(C)C1=O [Compound 170] (cyclo([Aib]L[NMedβ3hAla][NMeA]I[Sar][Sar][NMePhe(4-Cl)][Sar][hPhe(4-CF3)]L)) | 350 nM
CC[C@H](C)[C@@H]1NC(=O)[C@H](CC(C)C)N(C)C(=O)C[C@@H](C(=O)N2CCCCC2)N(C)C(=O)[C@H](C2CCCCC2)N(C)C(=O)C2(CCCC2)NC(=O)[C@H]2COCCN2C(=O)[C@H](CCc2ccc(C(F)(F)F)c(Cl)c2)NC(=O)CN(C)C(=O)[C@H](CC2CCCCC2)N(C)C(=O)CN(C)C(=O)CN(C)C1=O [Compound 1445] ([NMeL]I[Sar][Sar][NMeCha][Sar][hPhe(3-Cl-4-CF3)][X124][Ac5c][NMeChg][NMeD]-Piperidide; lactam N-11) | 250 nM
CC[C@H](C)[C@@H]1NC(=O)[C@H](CC(C)C)N(C)C(=O)C[C@@H](C(=O)N2CCCCC2)N(C)C(=O)[C@H](C2CCCC2)N(C)C(=O)C2(CCCC2)NC(=O)[C@@H]2CCCN2C(=O)[C@H](CCc2ccc(C(F)(F)F)c(Cl)c2)NC(=O)CN(C)C(=O)[C@H](Cc2ccc(F)cc2)N(C)C(=O)[C@@H]2CCN2C(=O)[C@H](C)N(C)C1=O [Compound 388] ([NMeL]I[NMeA][Aze][NMePhe(4-F)][Sar][hPhe(3-Cl-4-CF3)]P[Ac5c][NMeGly(cPent)][NMeD]-Piperidide; lactam N-11) | 0.5 nM
CCCOC[C@H]1C(=O)N[C@@H]([C@@H](C)CC)C(=O)N(C)[C@@H](C)C(=O)N2CC[C@H]2C(=O)N(C)[C@@H](CC2CCCCC2)C(=O)N(C)CC(=O)N[C@@H](CCc2ccc(C(F)(F)F)c(Cl)c2)C(=O)N2CCC[C@H]2C(=O)NC2(CCCC2)C(=O)N(C)[C@@H](C(C)C)C(=O)N(C)[C@H](C(=O)N2CCCCC2)CC(=O)N1C [Compound 1763] ([NMeS](Propyl)I[NMeA][Aze][NMeCha][Sar][hPhe(3-Cl-4-CF3)]P[Ac5c][NMeV][NMeD]-Piperidide; lactam N-11) | 4.5 nM
